# Experimental data taken from PMC10974622, “Hybrid Peptide-Alkoxyamine Drugs: A Strategy for the Development of a New Family of Antiplasmodial Drugs” (Molecules, 2024).
# Like-named read-outs stand apart in the source and are kept apart here.
# How the values were obtained:
# [1] = system: P. falciparum strain F32-ART (artemisinin-resistant); test: microbe, parasite or virus in culture; type: cell-based, Plasmodium falciparum; conditions: for IC50: Plasmodium falciparum
# From the text: The antimalarial activity of peptide-alkoxyamine hybrids was first evaluated in the in vitro antiproliferative test (IC50) using the artemisinin-resistant strain F32-ART (Table 2, Table S1). The roles of the N-substitution of the alkoxyamine moiety (TEMPO- or DBNO-based, for example, A3L/A8L, line 1/line 10), of the configuration (L or D of the peptide, A3L/A3D, line 1/line 2), of the N-protection of the peptide (A3L/A4L or A5L, line 1/ lines 3 and 5) were examined. According to standard rules in the malaria field, only molecules having IC50 values below 1 μM were considered active.
# The F32-ART (artemisinin-resistant) strain and the F32-TEM (artemisinin-sensitive strain) were cultured according to Trager and Jensen in RPMI 1640 medium (Fisher Scientific, Illkirch, France) supplemented with 5% human serum (Etablissement français du Sang, Toulouse, France) at 2% hematocrit with type O human blood (Etablissement français du Sang, Toulouse, France), 37 °C, and 5% CO2 in a humidified atmosphere.
# (§1) IC50 values corresponding to 50% inhibition of P. falciparum growth were determined by SYBR Green assay, and the assessment of cytotoxicity was performed on Vero cells (cell line from the kidney of a normal adult African green monkey), as previously published. The selectivity index corresponded to the cytotoxicity/activity ratio.
# [2] = system: F32-ART parasites; test: Parasitemia monitoring and parasite morphology upon drug exposure, F32-ART ring-stage parasites; type: cell-based, Plasmodium falciparum; conditions: 48 h exposure
# Protocol: (§2) The effect of hybrid compounds against Plasmodium parasites was assessed by the microscopic examination of parasite morphology upon drug exposure. For this purpose, parasites were synchronized at 0–4 h age by percoll-sorbitol treatment, 0–24 h age by sorbitol treatment, or at schizont stage by percoll treatment at the start of the experiment. Different treatment schedules were tested. In the case of multiple doses, parasite cultures were washed before each new drug addition.
# [3] = Kinetic analysis of alkoxyamine bond homolysis by EPR; type: physicochemical; conditions: Equation (2), A = 2.4 · 10^14 s^−1
# Protocol: The kinetic homolysis for peptide-alkoxyamines reported in Table 1 was recorded in EPR using two solvents, tert-butylbenzene (t-BuPh) or an n-propanol:water (1:1, v:v) mixture. The growth of nitroxide was recorded in the presence of an alkyl radical scavenger, i.e., O2 here, to suppress the back reaction (kc in Scheme 4), as already reported.
# Homolysis rate constants kd are given by Equation (1) ([nitroxide]∞ = [alkoxyamine]0 = 0.1 mM), and the subsequent activation energy values Ea are given by Equation (2), as follows:(1) lnnitroxide∞−nitroxidet/nitroxide∞=−kd·t (2) Ea=−RTlnkd/A
# [4] = system: P. falciparum parasites at the schizont stage; test: Efficacy on the re-invasion step, post-percoll schizonts treated 15 h; type: cell-based, Plasmodium falciparum
# Protocol: We wondered if this activity was due to a specific effect of the drug toward the schizont stage and re-invasion step of the parasite life cycle. However, treatment of parasites at the schizont stage for 15 h with A8L had no effect on parasite viability or development (Figure 8), highlighting that the mechanism of action of A8L has yet to be identified.
# as §2
# [5] = in vitro; type: cell-based, African green monkey; conditions: African green monkey, Cytotoxicity CC50
# Protocol: as §1
# [6] = system: F32-TEM parasites (artemisinin-sensitive); test: Parasitemia monitoring with different treatment schedules, F32-TEM parasites; type: cell-based, Plasmodium falciparum
# [7] = Thermolysis of A8L in DMSO with or without hemin, LC-MS; type: physicochemical; conditions: 80 °C, 1 h
# Protocol: Since a putative antimalarial mechanism of action of these hybrid drugs was the alkylation of heme within the parasite food vacuole, the reactivity of the hybrid having the lower IC50 value, namely A8L (Table 2), was evaluated in the presence (or absence) of heme. In the absence of any protease activity able to cleave the tripeptide fragment, the alkoxyamine C–O bond was stable at room temperature; thus, thermolysis was carried out in DMSO at 80 °C for 1 h under an air atmosphere to achieve a nearly complete reaction (88–90% of conversion of A8L). The reaction was monitored by LC-MS analysis, and products A–F were detected and quantified (Figure 4). […] Products B, C, and D, resulting from the capture of dioxygen by the alkyl radical, were the major ones, with yields of 30%, 13%, and 21%, respectively, with respect to the starting amount of A8L. B and C have already been detected as thermolysis products of uncoupled alkoxyamine.
# In a test tube equipped with a magnetic stirrer, 20 μL of a stock solution of A8L (10 mM in DMSO) was added to 180 μL of DMSO. […] Retention times and detected m/z values (amu) were as follows: JP2310, 20.8 min, 758.5 (MH^+), 702.4 (fragment); A, 27.4 min, 615.4 (MH^+); B, 21.2 min, 629.3 (MH^+); C, 20.1 min, 631.4 (MH^+); D, 20.3 min, 647.3 (MH^+); F, 25.7 min, 613.3 (MH^+); hemin, 17.3 min, 616.2 (M^+).
# [8] = system: F32-ART parasites at the quiescent stage; test: Quiescent-stage Survival Assay (QSA); type: cell-based, Plasmodium falciparum; conditions: 700 nM DHA 6 h/(DHA + molecule 7 µM) 48 h
# Protocol: In this assay, parasites were exposed to dihydroartemisinin (DHA) alone to induce quiescence, prior the addition of the drug to be tested for 48 h, and then the parasite recrudescence was monitored over a maximum of 4 weeks. Activity against quiescent parasites was evidenced by a delay in recrudescence time over 6 days between the conditions “DHA 6 h / DHA 48 h” and “DHA 6 h/(DHA + molecule) 48 h”. Atovaquone was used as a positive control, and its activity against quiescent parasites was here confirmed, as expected, by an extended delay of 11 days in recrudescence time (Figure 5). By contrast, no activity of A8L and A3L against quiescent parasites was evidenced in the QSA, with similar recrudescence time between the conditions “DHA 6 h/DHA 48 h” and “DHA 6 h/(DHA + molecule) 48 h”. […] To understand this phenomenon, we explored the parasite response during treatment with these hybrid compounds.
# The QSA was performed according to Reyser et al.. Briefly, ART-resistant ring-stage parasites at 3% parasitemia were exposed for 6 h to 700 nM of DHA (dihydroartemisinin) to induce quiescence or were exposed to no drugs (control condition). After that, the compound to be tested was added in both conditions […]. At the end of the treatment, the drugs were washed off with RPMI-1640, and parasites were replaced in drug-free conditions. Blood smears were performed to follow parasitemia until the day the cultures reached their starting parasitemia, defined as the recrudescence day. If after 30 days no parasite recrudescence was observed, then the data were censored. Data analysis was performed using Kaplan–Meier survival curves. Statistical significance was ascertained by using a log-rank (Mantel-Cox) test using GraphPad Prism 7 software (San Diego, CA, USA).
smiles,measurement,setting,value
CC(ON(C(C)(C)C)C(C)(C)C)c1ccc(NC(=O)[C@H](Cc2ccccc2)NC(=O)[C@@H](NC(=O)[C@H](Cc2ccccc2)NC(=O)OC(C)(C)C)C(C)C)cc1 (stereo partly shown) [A8L],IC50,"[1]; F32, read-out: Antiplasmodial Activity IC50, strain F32-ART, SYBR Green assay, mean ± SEM of 3 to 6 experiments",270 ± 40 nM
same,IC50,"[1]; F32, read-out: Antiplasmodial IC50, strain F32-ART",300 nM
same,Selectivity Index CC50/IC50,[1]; cytotoxicity (Vero cells)/antiplasmodial activity (F32-ART) ratio,>185
same,effect on parasitemia and parasite cell cycle,[2],cytostatic-like effect
same,activation energy Ea,[3]; in t-BuPh,28.9 kcal/mol
same,activation energy Ea,[3]; in water/n-PrOH 1/1 v/v,28.9 kcal/mol
same,effect on parasite viability or development,[4],no effect
same,CC50,[5],> 50000 nM
same,effect on parasite cell cycle,"[6]; F32-TEM, 5 µM 48 h",cytostatic-like effect
same,effect of repeated exposure for at least three days,[6]; once or twice a day for three days,elimination of parasites in a dose-dependent manner
same,conversion of A8L on thermolysis,[7]; A8L/hemin molar ratio 1/1,88–89%
same,conversion of A8L on thermolysis,"[7]; air, absence of hemin",88–90%
same,activity against quiescent parasites in the QSA,[8],no activity
